Results from patent US11780845B2 (Relay Therapeutics, Inc., priority 2019, dated 2023).

Legend:
SNU-16 = assay: Cell SNU-16 assay; format: cell-based
FGFR2 = FGFR2 (Homo sapiens (Human), UniProt P21802); assay: Biochemical FGFR2 Caliper assay
[1] = Homo sapiens, SNU-16, SNU-16 cells

Chain of FGFR2 (P21802 22-821): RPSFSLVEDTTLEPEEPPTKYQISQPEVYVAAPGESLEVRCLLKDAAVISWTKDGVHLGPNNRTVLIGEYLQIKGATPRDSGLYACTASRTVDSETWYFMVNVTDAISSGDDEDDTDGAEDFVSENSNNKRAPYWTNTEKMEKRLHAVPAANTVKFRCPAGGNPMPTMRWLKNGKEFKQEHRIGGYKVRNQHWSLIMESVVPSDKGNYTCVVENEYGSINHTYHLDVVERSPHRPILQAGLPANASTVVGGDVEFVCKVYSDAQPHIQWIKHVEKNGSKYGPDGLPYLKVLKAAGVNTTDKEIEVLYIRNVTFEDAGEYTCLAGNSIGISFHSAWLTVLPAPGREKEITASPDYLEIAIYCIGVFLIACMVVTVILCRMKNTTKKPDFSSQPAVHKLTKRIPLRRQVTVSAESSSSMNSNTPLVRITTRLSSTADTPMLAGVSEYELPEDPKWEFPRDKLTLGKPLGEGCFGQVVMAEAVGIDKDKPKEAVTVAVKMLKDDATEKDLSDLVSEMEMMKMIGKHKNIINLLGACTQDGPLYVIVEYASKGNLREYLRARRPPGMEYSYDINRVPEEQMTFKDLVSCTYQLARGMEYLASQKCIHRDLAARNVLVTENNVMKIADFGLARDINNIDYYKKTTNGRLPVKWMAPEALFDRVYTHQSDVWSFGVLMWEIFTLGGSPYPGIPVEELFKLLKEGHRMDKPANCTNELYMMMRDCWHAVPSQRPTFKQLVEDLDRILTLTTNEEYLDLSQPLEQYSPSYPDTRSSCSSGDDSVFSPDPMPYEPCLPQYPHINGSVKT

`C=C(C)C(=O)Nc1ccc(-c2c(-c3cnc(-c4ccccc4C)s3)c3c(N)ncnc3n2C)cc1` [Example 1422] was tested, and the IC50 (SNU-16; [1]) was 250 to 1000 nM and the IC50 (FGFR2) was 250 to 1000 nM.

With `C=C(C)C(=O)Nc1ccc(-c2c(-c3cnc(-c4cccc(C)c4)s3)c3c(N)ncnc3n2C)cc1` [Example 1423] the IC50 (SNU-16; [1]) was 250 to 1000 nM and the IC50 (FGFR2) was 250 to 1000 nM.

`C=C(C)C(=O)Nc1ccc(-c2c(-c3cnc(-c4ccc(F)cc4)s3)c3c(N)ncnc3n2C)cc1` [Example 1424] showed an IC50 (SNU-16; [1]) of 250 to 1000 nM and an IC50 (FGFR2) of 100 to 250 nM.

With `C#Cc1cnc2cc(-c3c(-c4ccc(Oc5nccc(C)n5)c(F)c4)c4c(N)ncnc4n3C)ccc2c1` [Example 1425] the IC50 (SNU-16; [1]) was 1000 to 100000 nM and the IC50 (FGFR2) was 1000 to 100000 nM.

For `C#Cc1nc2cc(-c3c(-c4ccc(Oc5nccc(C)n5)c(F)c4)c4c(N)ncnc4n3C)c(OC)cc2n1C` [Example 1426], the IC50 (SNU-16; [1]) was ≤ 100 nM and the IC50 (FGFR2) was < 100 nM.

In the case of `COCC#Cc1ccc2cc(-c3c(-c4ccc(Oc5nccc(C)n5)c(F)c4)c4c(N)ncnc4n3C)ccc2n1` [Example 1427], the IC50 (SNU-16; [1]) is reported as ≤ 100 nM and the IC50 (FGFR2) is reported as < 100 nM.

In the case of `C#Cc1cnc2cc(-c3c(-c4ccc(Oc5nccc(C)n5)c(F)c4)c4c(N)ncnc4n3C)c(C)cc2n1` [Example 1428], the IC50 (SNU-16; [1]) is reported as ≤ 100 nM and the IC50 (FGFR2) is reported as < 100 nM.

In the case of `C#Cc1ccc2cc(-c3c(-c4ccc(Oc5nccc(C)n5)c(F)c4)c4c(N)ncnc4n3C)cnc2n1` [Example 1429], the IC50 (SNU-16; [1]) is reported as ≤ 100 nM and the IC50 (FGFR2) is reported as < 100 nM.

With `COCC#Cc1cc(OC)c(-c2c(-c3ccc(Oc4nccc(C)n4)c(F)c3)c3c(C)ncnc3n2C)cn1` [Example 1430] the IC50 (SNU-16; [1]) was ≤ 100 nM and the IC50 (FGFR2) was < 100 nM.

In the case of `[2H]C#Cc1cc(C)c(-c2c(-c3ccc(Oc4nccc(C)n4)c(F)c3)c3c(N)ncnc3n2C)cn1` [Example 1431], the IC50 (SNU-16; [1]) is reported as ≤ 100 nM and the IC50 (FGFR2) is reported as < 100 nM.

`C#Cc1cc(C)c(-c2c(-c3ccc(Oc4nccc(C)n4)c(F)c3)c3c(C(F)F)ncnc3n2C)cn1` [Example 1432] was tested, and the IC50 (SNU-16; [1]) was 1000 to 100000 nM and the IC50 (FGFR2) was 1000 to 100000 nM.

`C#Cc1cc(OC)c(-c2c(-c3ccc(Oc4nccc(C)n4)c(F)c3)c3c(N)ncnc3n2C)cn1` [Example 1433] was tested, and the IC50 (SNU-16; [1]) was ≤ 100 nM and the IC50 (FGFR2) was < 100 nM.

For `C#Cc1nc2cc(-c3c(-c4ccc(Oc5nccc(C)n5)c(F)c4)c4c(N)ncnc4n3C)c(C)cc2n1C` [Example 1434], the IC50 (SNU-16; [1]) was ≤ 100 nM and the IC50 (FGFR2) was < 100 nM.

For `C=C(C)C(=O)Nc1ccc(-c2c(-c3ccc(OCc4ccccc4)c(F)c3)c3c(N)ncnc3n2C)cc1` [Example 1435], the IC50 (SNU-16; [1]) was 1000 to 100000 nM and the IC50 (FGFR2) was 1000 to 100000 nM.

In the case of `C=C(C)C(=O)Nc1ccc(-c2c(-c3ccc(OCc4ccccn4)c(F)c3)c3c(N)ncnc3n2C)cc1` [Example 1436], the IC50 (SNU-16; [1]) is reported as 1000 to 100000 nM and the IC50 (FGFR2) is reported as 1000 to 100000 nM.

With `C=C(C)C(=O)Nc1ccc(-c2c(-c3ccc(O)c(F)c3)c3c(N)ncnc3n2C)cc1` [Example 1437] the IC50 (SNU-16; [1]) was 1000 to 100000 nM and the IC50 (FGFR2) was 250 to 1000 nM.

With `C#Cc1nc(C)c(-c2c(-c3ccc(Oc4nccc(C)n4)c(F)c3)c3c(N)ncnc3n2C)c(C)n1` [Example 1438] the IC50 (SNU-16; [1]) was ≤ 100 nM and the IC50 (FGFR2) was < 100 nM.

In the case of `C#Cc1cc(C)c(-c2c(-c3ccc(Oc4nccc(C)n4)c(F)c3)c3c(N)ncnc3n2C)cn1` [Example 1439], the IC50 (SNU-16; SNU-16 cells) is reported as ≤ 100 nM and the IC50 (FGFR2) is reported as < 100 nM.

With `C#Cc1cc2c(cn1)-c1c(-c3ccc(Oc4nccc(C)n4)c(F)c3)c3c(N)ncnc3n1CCO2` [Example 1440] the IC50 (SNU-16; [1]) was ≤ 100 nM and the IC50 (FGFR2) was < 100 nM.

With `C#Cc1cc2c(cn1)-c1c(-c3ccc(Oc4nccc(C)n4)c(F)c3)c3c(N)ncnc3n1[C@H](C)CO2` [Example 1441] the IC50 (SNU-16; [1]) was 100 to 250 nM and the IC50 (FGFR2) was 250 to 1000 nM.

Compound `C#Cc1cc2c(cn1)-c1c(-c3ccc(Oc4nccc(C)n4)c(F)c3)c3c(N)ncnc3n1[C@@H](C)CO2` [Example 1442] has an IC50 (SNU-16; [1]) of 250 to 1000 nM and an IC50 (FGFR2) of 1000 to 100000 nM.

For `C#Cc1ccc2c(n1)CCCn1c-2c(-c2ccc(Oc3nccc(C)n3)c(F)c2)c2c(N)ncnc21` [Example 1443], the IC50 (SNU-16; [1]) was ≤ 100 nM and the IC50 (FGFR2) was 100 to 250 nM.

`C#Cc1cc2c(cn1)-c1c(-c3ccc(Oc4nccc(C)n4)c(F)c3)c3c(C)ncnc3n1CCC2` [Example 1445] was tested, and the IC50 (SNU-16; [1]) was ≤ 100 nM and the IC50 (FGFR2) was < 100 nM.

With `C#Cc1cc(OCCO)c(-c2[nH]c3ncnc(N)c3c2-c2ccc(Oc3nccc(C)n3)c(F)c2)cn1` [Example 1447] the IC50 (SNU-16; [1]) was ≤ 100 nM and the IC50 (FGFR2) was < 100 nM.

For `C#Cc1cc(OC)c(-c2c(-c3ncc(Oc4nccc(C)n4)cc3F)c3c(N)ncnc3n2C)cn1` [Example 1452], the IC50 (SNU-16; [1]) was ≤ 100 nM and the IC50 (FGFR2) was < 100 nM.

With `C#Cc1cc(OC)c(-c2c(-c3ncc(Oc4nccc(C)n4)cc3F)c3c(C)ncnc3n2C)cn1` [Example 1454] the IC50 (SNU-16; [1]) was ≤ 100 nM and the IC50 (FGFR2) was < 100 nM.

`C#Cc1cc2c(cn1)-c1c(-c3ccc(Oc4nccc(C)n4)c(F)c3)c3c(N)ncnc3n1C[C@H](C)O2` [Example 1455] was tested, and the IC50 (SNU-16; [1]) was ≤ 100 nM and the IC50 (FGFR2) was < 100 nM.

With `C#Cc1cc2c(cn1)-c1c(-c3ccc(Oc4nccc(C)n4)c(F)c3)c3c(N)ncnc3n1C[C@@H](C)O2` [Example 1456] the IC50 (SNU-16; [1]) was ≤ 100 nM and the IC50 (FGFR2) was < 100 nM.

`C#Cc1cc(OC)c(-c2c(-c3ccc(C(=O)NCC4(F)CCC4)c(OC)c3)c3c(C)ncnc3n2C)cn1` [Example 1457] was tested, and the IC50 (SNU-16; [1]) was ≤ 100 nM and the IC50 (FGFR2) was 100 to 250 nM.

For `C#Cc1cc(N(C)C)c(-c2c(-c3ccc(Oc4nccc(C)n4)c(F)c3)c3c(N)ncnc3n2C)cn1` [Example 1458], the IC50 (SNU-16; [1]) was ≤ 100 nM and the IC50 (FGFR2) was < 100 nM.

`C#Cc1ccc2c(cc(-c3c(-c4ccc(Oc5nccc(C)n5)c(F)c4)c4c(N)ncnc4n3C)n2C)n1` [Example 1461] was tested, and the IC50 (SNU-16; [1]) was 100 to 250 nM and the IC50 (FGFR2) was 250 to 1000 nM.

`C#Cc1cc(C)c(-c2nn3c(c2-c2ccc(Oc4nccc(C)n4)c(F)c2)COCC3)cn1` [Example 1462] showed an IC50 (SNU-16; [1]) of 1000 to 100000 nM and an IC50 (FGFR2) of 1000 to 100000 nM.

`C#Cc1cc(OC)c(-c2c(C3=CC[C@@H](C(=O)N4CCC[C@H]4C#N)CC3)c3c(C)ncnc3n2C)cn1` [Example 1467] was tested, and the IC50 (SNU-16; [1]) was ≤ 100 nM and the IC50 (FGFR2) was 250 to 1000 nM.

For `C#Cc1cc(OC)c(-c2c(C3=CC[C@H](C(=O)N4CCC[C@H]4C#N)CC3)c3c(C)ncnc3n2C)cn1` [Example 1468], the IC50 (SNU-16; [1]) was ≤ 100 nM and the IC50 (FGFR2) was < 100 nM.

With `C#Cc1cc(OC)c(-c2c(C3=CC[C@H](C(=O)N4CCC[C@H]4C#N)CC3)c3c(C)ncnc3n2C)c(C)n1` [Example 1473] the IC50 (SNU-16; [1]) was ≤ 100 nM and the IC50 (FGFR2) was < 100 nM.

Compound `C#Cc1cc(OC)c(-c2c(C3=CC[C@@H](C(=O)N4CCC[C@H]4C#N)CC3)c3c(C)ncnc3n2C)c(C)n1` [Example 1475] has an IC50 (SNU-16; SNU-16 cells) of 1000 to 100000 nM and an IC50 (FGFR2) of 1000 to 100000 nM.

Work on `C#Cc1cc(OC)c(-c2c(C3=CC[C@@H](C(=O)N4CCC[C@H]4C#N)CC3)c3c(C)ncnc3n2C)c(C)n1` [Example 1476] yielded an IC50 (SNU-16; SNU-16 cells) of 250 to 1000 nM and an IC50 (FGFR2) of 1000 to 100000 nM.

`C#Cc1cc2c(cn1)-c1c(-c3ccc(Oc4nccc(C)n4)c(F)c3)c3c(N)ncnc3n1CCC2` [Example 1477] was tested, and the IC50 (SNU-16; [1]) was ≤ 100 nM and the IC50 (FGFR2) was < 100 nM.

`C#Cc1cc(CCCO)c(-c2[nH]c3ncnc(N)c3c2-c2ccc(Oc3nccc(C)n3)c(F)c2)cn1` [Example 1478] gave an IC50 (SNU-16; [1]) of 100 to 250 nM and an IC50 (FGFR2) of 250 to 1000 nM.

`C#Cc1cc(C)c(-c2c(-c3ccc(Oc4nccc(C)n4)c(F)c3)c3c(CO)ncnc3n2C)cn1` [Example 1479] was tested, and the IC50 (SNU-16; [1]) was ≤ 100 nM and the IC50 (FGFR2) was 250 to 1000 nM.

With `C=C(C)C(=O)Nc1ccc(-c2c(C3=CC[C@H](C(=O)N4CCCC4)CC3)c3c(N)ncnc3n2C)c(OC)c1` [Example 1480] the IC50 (SNU-16; [1]) was 250 to 1000 nM and the IC50 (FGFR2) was 1000 to 100000 nM.

`C=C(C)C(=O)Nc1ccc(-c2c(C3=CC[C@H](C(=O)N4CCC[C@H]4C)CC3)c3c(N)ncnc3n2C)c(C)c1` [Example 1481] showed an IC50 (SNU-16; [1]) of 100 to 250 nM and an IC50 (FGFR2) of 250 to 1000 nM.

For `C=C(C)C(=O)Nc1cc(C)c(-c2c(C3=CC[C@H](C(=O)N4CCCC4)CC3)c3c(N)ncnc3n2C)c(F)c1` [Example 1482], the IC50 (SNU-16; [1]) was ≤ 100 nM and the IC50 (FGFR2) was < 100 nM.
